{"source": "patent US8431613B2", "about": "“Memory fixation accelerator” (Research Foundation ITSUU Laboratory, priority 2004, dated 2013)", "tested_on": "Slc:Wistar male rats given scopolamine", "test": "Passive avoidance reaction (shuttle type avoidance test box) in scopolamine-treated rats", "type": "in vivo, rat", "details": "for latent time compared with the control group: Example 2, scopolamine 0.25 or 0.5 mg/kg, drug treatment from the 2nd day", "procedure": "6-Week old Slc:Wistar male rats were used for the experiment after preliminary breeding including one week of quarantine. The animals were individually bred under an environment at a temperature of 22±3° C. and a humidity of 50±20% with illumination of 12 hours (8:00 to 20:00) for both the preliminary breeding and experimental periods, and the animals were given pellets (Labo MR Stock, Nihon Nosan Kogyo K.K.) and tap water ad libitum. The animals were divided into groups according to body weights as an index (10 animals/group), and trials for acquisition and reproduction of memory were performed. Each trial was performed by using a shuttle type avoidance test box. […] Each animal was put into the light room, time until the animal moved to the dark room (latent time) was measured up to 5 minutes, and when the rat moved to the darkroom, the partition was shut, and shock was given by electrification.\nEach animal was subcutaneously given 0.5 mg/kg of scopolamine 30 minutes before the trial, and this procedure was continued for seven days. Scopolamine, which is an anticholinergic agent, is known to block the muscarinic acetylcholine receptor in the striate body and inhibit acquisition of new memory (Folia Pharmacol. Jpn., 97, pp. 351-359, 1991). From the third day, the test substance (Am80: 4-[(5,6,7,8-tetrahydro-5,5,8,8-tetramethyl-2-naphthalenyl)carbamoyl]benzoic acid, 10 mg/kg/day) was orally given 3 hours before the scopolamine treatment. With numerical values obtained, average and standard deviation were calculated for each group, and a homoscedasticity test was performed by F-test between the control group (no Am80 treatment) and Am80-treated group. When homoscedasticity was observed, presence or absence of significant difference was determined by Student's t-test, and when non-homoscedasticity was observed, presence or absence of significant difference was determined by Aspin-Welch's t-test.\nA test was performed in the same manner as that of Example 1, except that scopolamine was given at a dose of 0.25 mg/kg or 0.5 mg/kg, and 2 mg/kg, 5 mg/kg or 12.5 mg/kg of Am80, 30 mg/kg of Tac101 (4-[(3,5-bis-trimethylsilylphenyl)-carboxamido]benzoic acid), and 10 mg/kg of HX630 (4-[2,3-(2,5-dimethyl-2,5-hexano)dibenzo[b,f][1,4]thiazepin-11-yl]benzoic acid) were given. Combinatory use of Am80 (5 mg/kg) and HX630 (10 mg/kg) was also similarly examined. Drug treatment was performed from the 2nd day.\nIn the same manner as that of Example 2, scopolamine was given at a dose of 0.25 mg/kg, and 10 mg/kg of 4-[5-(4,7-dimethylbenzofuran-2-yl)pyrrol-2-yl]benzoic acid (IT-K-1001) was orally given.", "note": "Marks after values point to notes of the source that are not given here."}
{"smiles": "Cc1ccc(C)c2oc(-c3ccc(-c4ccc(C(=O)O)cc4)[nH]3)cc12", "note": "[IT-K-1001, 4-[5-(4,7-dimethylbenzofuran-2-yl)pyrrol-2-yl]benzoic acid]", "values": [{"measurement": "effect on the action of scopolamine (reaction latency)", "setting": "Example 3, 10 mg/kg oral, scopolamine 0.25 mg/kg", "value": "markedly inhibited the effect of scopolamine"}, {"measurement": "Reaction latency", "setting": "IT-K-1001 10 mg/kg/day oral, SCP 0.25 mg/kg/day, lapsed day 1", "value": 22, "unit": "s"}, {"measurement": "Reaction latency", "setting": "IT-K-1001 10 mg/kg/day oral, SCP 0.25 mg/kg/day, lapsed day 2", "value": 11, "unit": "s"}, {"measurement": "Reaction latency", "setting": "IT-K-1001 10 mg/kg/day oral, SCP 0.25 mg/kg/day, lapsed day 3", "value": 106, "unit": "s"}, {"measurement": "Reaction latency", "setting": "IT-K-1001 10 mg/kg/day oral, SCP 0.25 mg/kg/day, lapsed day 4", "value": 115, "unit": "s"}, {"measurement": "Reaction latency", "setting": "IT-K-1001 10 mg/kg/day oral, SCP 0.25 mg/kg/day, lapsed day 5", "value": 206, "unit": "s"}, {"measurement": "Reaction latency", "setting": "IT-K-1001 10 mg/kg/day oral, SCP 0.25 mg/kg/day, lapsed day 6", "value": 291, "unit": "s"}, {"measurement": "Reaction latency", "setting": "IT-K-1001 10 mg/kg/day oral, SCP 0.25 mg/kg/day, lapsed day 7", "value": 300, "unit": "s"}, {"measurement": "Reaction latency", "setting": "IT-K-1001 10 mg/kg/day oral, SCP 0.25 mg/kg/day, lapsed day 8", "value": 281, "unit": "s"}]}
{"smiles": "CC1(C)CCC(C)(C)c2cc(NC(=O)c3ccc(C(=O)O)cc3)ccc21", "note": "[Am80, 4-[(5,6,7,8-tetrahydro-5,5,8,8-tetramethyl-2-naphthalenyl)carbamoyl]benzoic acid]", "values": [{"measurement": "Reaction latency", "setting": "Am80 2 mg/kg/day from 2nd day, SCP 0.5 mg/kg/day, lapsed day 1", "value": 14, "unit": "s"}, {"measurement": "Reaction latency", "setting": "Am80 2 mg/kg/day from 2nd day, SCP 0.5 mg/kg/day, lapsed day 2", "value": 9, "unit": "s"}, {"measurement": "Reaction latency", "setting": "Am80 2 mg/kg/day from 2nd day, SCP 0.5 mg/kg/day, lapsed day 3", "value": 23, "unit": "s"}, {"measurement": "Reaction latency", "setting": "Am80 2 mg/kg/day from 2nd day, SCP 0.5 mg/kg/day, lapsed day 4", "value": 24, "unit": "s"}, {"measurement": "Reaction latency", "setting": "Am80 2 mg/kg/day from 2nd day, SCP 0.5 mg/kg/day, lapsed day 5", "value": 38, "unit": "s"}, {"measurement": "Reaction latency", "setting": "Am80 5 mg/kg/day from 2nd day, SCP 0.25 mg/kg/day, lapsed day 1", "value": 14, "unit": "s"}, {"measurement": "Reaction latency", "setting": "Am80 5 mg/kg/day from 2nd day, SCP 0.25 mg/kg/day, lapsed day 2", "value": 15, "unit": "s"}, {"measurement": "Reaction latency", "setting": "Am80 5 mg/kg/day from 2nd day, SCP 0.25 mg/kg/day, lapsed day 3", "value": 53, "unit": "s"}, {"measurement": "Reaction latency", "setting": "Am80 5 mg/kg/day from 2nd day, SCP 0.25 mg/kg/day, lapsed day 4", "value": 80, "unit": "s"}, {"measurement": "Reaction latency", "setting": "Am80 5 mg/kg/day from 2nd day, SCP 0.25 mg/kg/day, lapsed day 5", "value": 155, "unit": "s"}, {"measurement": "Reaction latency", "setting": "Am80 5 mg/kg/day from 2nd day, SCP 0.5 mg/kg/day, lapsed day 1", "value": 19, "unit": "s"}, {"measurement": "Reaction latency", "setting": "Am80 5 mg/kg/day from 2nd day, SCP 0.5 mg/kg/day, lapsed day 2", "value": 18, "unit": "s"}, {"measurement": "Reaction latency", "setting": "Am80 5 mg/kg/day from 2nd day, SCP 0.5 mg/kg/day, lapsed day 3", "value": 38, "unit": "s"}, {"measurement": "Reaction latency", "setting": "Am80 5 mg/kg/day from 2nd day, SCP 0.5 mg/kg/day, lapsed day 4", "value": 52, "unit": "s"}, {"measurement": "Reaction latency", "setting": "Am80 5 mg/kg/day from 2nd day, SCP 0.5 mg/kg/day, lapsed day 5", "value": 71, "unit": "s"}, {"measurement": "Reaction latency", "setting": "Am80 10 mg/kg/day oral from 3rd day, scopolamine 0.5 mg/kg s.c., lapsed day 1 (before treatment)", "value": 15, "unit": "s"}, {"measurement": "Reaction latency", "setting": "Am80 10 mg/kg/day oral from 3rd day, scopolamine 0.5 mg/kg s.c., lapsed day 2 (before treatment)", "value": 14, "unit": "s"}, {"measurement": "Reaction latency", "setting": "Am80 10 mg/kg/day oral from 3rd day, scopolamine 0.5 mg/kg s.c., lapsed day 3", "value": 26, "unit": "s"}, {"measurement": "Reaction latency", "setting": "Am80 10 mg/kg/day oral from 3rd day, scopolamine 0.5 mg/kg s.c., lapsed day 4", "value": 88, "unit": "s"}, {"measurement": "Reaction latency (second)", "setting": "Am80 10 mg/kg/day oral from 3rd day, scopolamine 0.5 mg/kg s.c., lapsed day 5", "value": "149** second"}, {"measurement": "Reaction latency (second)", "setting": "Am80 10 mg/kg/day oral from 3rd day, scopolamine 0.5 mg/kg s.c., lapsed day 6", "value": "163** second"}, {"measurement": "Reaction latency (second)", "setting": "Am80 10 mg/kg/day oral from 3rd day, scopolamine 0.5 mg/kg s.c., lapsed day 7", "value": "162** second"}, {"measurement": "Reaction latency", "setting": "Am80 12.5 mg/kg/day from 2nd day, SCP 0.5 mg/kg/day, lapsed day 1", "value": 15, "unit": "s"}, {"measurement": "Reaction latency", "setting": "Am80 12.5 mg/kg/day from 2nd day, SCP 0.5 mg/kg/day, lapsed day 2", "value": 24, "unit": "s"}, {"measurement": "Reaction latency", "setting": "Am80 12.5 mg/kg/day from 2nd day, SCP 0.5 mg/kg/day, lapsed day 3", "value": 43, "unit": "s"}, {"measurement": "Reaction latency", "setting": "Am80 12.5 mg/kg/day from 2nd day, SCP 0.5 mg/kg/day, lapsed day 4", "value": 74, "unit": "s"}, {"measurement": "Reaction latency", "setting": "Am80 12.5 mg/kg/day from 2nd day, SCP 0.5 mg/kg/day, lapsed day 5", "value": 133, "unit": "s"}, {"measurement": "latent time, course from the start of the treatment", "setting": "Example 1, Am80 10 mg/kg/day oral, scopolamine 0.5 mg/kg s.c., significant differences vs control from the 5th day", "value": "gradually extended"}, {"measurement": "latent time compared with the control group", "value": "gradually extended"}]}
{"smiles": "CC1(C)CCC(C)(C)c2cc3c(cc21)Sc1ccccc1N=C3c1ccc(C(=O)O)cc1", "note": "[HX630, 4-[2,3-(2,5-dimethyl-2,5-hexano)dibenzo[b,f][1,4]thiazepin-11-yl]benzoic acid]", "values": [{"measurement": "latent time compared with the control group", "value": "gradually extended"}, {"measurement": "Reaction latency", "setting": "HX630 10 mg/kg/day from 2nd day, SCP 0.5 mg/kg/day, lapsed day 1", "value": 18, "unit": "s"}, {"measurement": "Reaction latency", "setting": "HX630 10 mg/kg/day from 2nd day, SCP 0.5 mg/kg/day, lapsed day 2", "value": 21, "unit": "s"}, {"measurement": "Reaction latency", "setting": "HX630 10 mg/kg/day from 2nd day, SCP 0.5 mg/kg/day, lapsed day 3", "value": 30, "unit": "s"}, {"measurement": "Reaction latency", "setting": "HX630 10 mg/kg/day from 2nd day, SCP 0.5 mg/kg/day, lapsed day 4", "value": 33, "unit": "s"}, {"measurement": "Reaction latency", "setting": "HX630 10 mg/kg/day from 2nd day, SCP 0.5 mg/kg/day, lapsed day 5", "value": 51, "unit": "s"}]}
{"smiles": "C[Si](C)(C)c1cc(C(=O)Nc2ccc(C(=O)O)cc2)cc([Si](C)(C)C)c1", "note": "[Tac101, 4-[(3,5-bis-trimethylsilylphenyl)-carboxamido]benzoic acid]", "values": [{"measurement": "latent time compared with the control group", "value": "gradually extended"}, {"measurement": "Reaction latency", "setting": "Tac101 30 mg/kg/day from 2nd day, SCP 0.5 mg/kg/day, lapsed day 1", "value": 19, "unit": "s"}, {"measurement": "Reaction latency", "setting": "Tac101 30 mg/kg/day from 2nd day, SCP 0.5 mg/kg/day, lapsed day 2", "value": 21, "unit": "s"}, {"measurement": "Reaction latency", "setting": "Tac101 30 mg/kg/day from 2nd day, SCP 0.5 mg/kg/day, lapsed day 3", "value": 47, "unit": "s"}, {"measurement": "Reaction latency", "setting": "Tac101 30 mg/kg/day from 2nd day, SCP 0.5 mg/kg/day, lapsed day 4", "value": 69, "unit": "s"}, {"measurement": "Reaction latency", "setting": "Tac101 30 mg/kg/day from 2nd day, SCP 0.5 mg/kg/day, lapsed day 5", "value": 107, "unit": "s"}]}
